For this assay, the target named is T1, OtsA (Arthrobacter alpinus, UniProt C7EZF1).
T1 construct: recombinant, expressed in and purified from E. coli; self-assembles into large networks
T1 sequence (C7EZF1 1-495): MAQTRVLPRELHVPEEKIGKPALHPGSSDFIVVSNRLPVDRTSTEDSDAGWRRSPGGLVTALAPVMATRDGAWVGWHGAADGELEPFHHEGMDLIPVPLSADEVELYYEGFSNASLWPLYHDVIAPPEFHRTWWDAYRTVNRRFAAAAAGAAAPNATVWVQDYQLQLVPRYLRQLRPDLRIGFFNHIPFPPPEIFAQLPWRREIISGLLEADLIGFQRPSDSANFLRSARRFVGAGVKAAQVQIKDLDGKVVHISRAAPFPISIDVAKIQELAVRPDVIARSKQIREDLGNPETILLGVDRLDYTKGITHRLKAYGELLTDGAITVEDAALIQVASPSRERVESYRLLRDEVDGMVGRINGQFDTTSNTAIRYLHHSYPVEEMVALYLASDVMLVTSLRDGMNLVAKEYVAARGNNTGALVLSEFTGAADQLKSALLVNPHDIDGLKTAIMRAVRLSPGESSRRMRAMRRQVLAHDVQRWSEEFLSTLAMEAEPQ
The experiment in a line: dynamic light scattering, self-assembly promoted by T6P. Format: binding. The following applies: 10 uM OtsA, 20 mM Tris HCl pH 7.5, 1 mM MgCl2, 1 M urea, 20 °C; up to 500 uM T6P; T6P is also the enzyme product.

With `O=P(O)(O)OC[C@H]1O[C@H](O[C@H]2O[C@H](CO)[C@@H](O)[C@H](O)[C@H]2O)[C@H](O)[C@@H](O)[C@@H]1O` [T6P, trehalose-6-phosphate], the “dynamic light scattering, self-assembly promoted by T6P” value is given as “increasing concentrations of this metabolite had a dramatic effect on promoting the rate of OtsA polymerization”.

The values above are taken from article PMC5685639, “A trehalose biosynthetic enzyme doubles as an osmotic stress sensor to regulate bacterial morphogenesis” (PLoS Genetics, 2017).
